Measurements from patent US20130119363A1, “FLUORINE-CONTAINING AROMATIC COMPOUND, ORGANIC SEMICONDUCTOR MATERIAL AND ORGANIC THIN FILM DEVICE” (ASAHI GLASS COMPANY, LIMITED, priority 2010, published 2013).

Assay: Evaluation of coating properties (orthodichlorobenzene solution, spin coating)
Assay type: physicochemical
Conditions: one mass % orthodichlorobenzene solution, filtered through a PTFE filter, spin coated on silicon substrate; thin film formed
Description: One mass % of orthodichlorobenzene solution of the fluorine-containing aromatic compound (II) obtained by the synthesis example (1-1) was prepared. The obtained solution was filtered with a PTFE (polytetrafluoroethylene) filter of which thickness was 0.45 μm, and thereafter, it was coated on a silicon substrate by the spin coating. A coating condition was 1500 rotations per minute for 30 seconds. Next, the silicon substrate was placed on the hot plate, and heated at 150° C. for 90 seconds. After that, a film thickness of a compound (II) layer formed on the silicon substrate was measured by using an AFM (atomic force microscope), and it was 70 nm.
One mass % of orthodichlorobenzene solution of the fluorine-containing aromatic compound (12) obtained by the synthesis example (2-1) was prepared. The obtained solution was filtered with the PTFE (polytetrafluoroethylene) filter of which thickness was 0.45 μm, and thereafter, it was coated on the silicon substrate by the spin coating. The coating condition was 1500 rotations per minute for 30 seconds. Next, the silicon substrate was placed on the hot plate, and the heating process was performed at 120° C. for 120 seconds. After that, a film thickness of a compound (12) layer formed on the silicon substrate was measured by using the AFM (atomic force microscope), and it was 80 nm.
One mass % of orthodichlorobenzene solution of the fluorine-containing aromatic compound (13) obtained by the synthesis example (3-1) was prepared. The obtained solution was filtered with the PTFE (polytetrafluoroethylene) filter of which thickness was […], and thereafter, it was coated on the silicon substrate by the spin coating. The coating condition was 1500 rotations per minute for 30 seconds. Next, the silicon substrate was placed on the hot plate, and heated at 120° C. for 120 seconds. After that, a film thickness of a fluorine-containing aromatic compound (13) layer formed on the silicon substrate was measured by using the AFM (atomic force microscope), and it was 90 nm.

Row | solubility for general solvents | Compound
1 | good solubility | CCCCCCOc1c(F)c(F)c2c(F)c(C#Cc3ccc4cc(C#Cc5c(F)c(F)c6c(F)c(OCCCCCC)c(F)c(F)c6c5F)ccc4c3)c(F)c(F)c2c1F [Compound (11), 2,6-bis((6-hexyloxyhexafluoronaphthalene-2-yl)ethynyl)naphthalene]
2 | good solubility | CCCCCCOc1c(F)c(F)c(C#Cc2ccc3cc(C#Cc4c(F)c(F)c(OCCCCCC)c(F)c4F)ccc3c2)c(F)c1F [Compound (12), 2,6-bis((4-hexyloxytetrafluorophenyl)ethynyl)naphthalene]
3 | good solubility | CCCCCCOc1c(F)c(F)c(C#Cc2ccc(-c3ccc(-c4ccc(C#Cc5c(F)c(F)c(OCCCCCC)c(F)c5F)s4)s3)s2)c(F)c1F [Compound (13), 5,5″-bis((4-hexyloxytetrafluorophenyl)ethynyl)-2.2°: 5,2″-terthiophene]
